Laboratory results from patent EP1592418B1, “USE OF ENDOCANNABINOID-LIKE COMPOUNDS FOR TREATING CNS DEGENERATIVE DISORDERS” (Research & Innovation S.p.A., priority 2003, dated 2004).

Assays:
[1] = Solubility (physico-chemical properties); assay type: physicochemical; conditions: for solubility: organic solvent or mixture, read-out: solubility in organic solvents
Jurkat cells = test: Evaluation of cellular viability by MTT assay; assay type: cell-based, human; conditions: for Growth inhibition (% of control): 10 µM, incubated 18-24 hr, MTT, absorbance 570 nm
Method: Jurkat, an acute T-lymphoblastic leukemia cell line generated from a person, have been used. Cell culture have been cultured in RPMI-1640 culture medium containing 10% FBS.
Jurkat cells were cultured at 1x10^5 cells/ml in RPMI 1640 medium supplemented with 10% fetal bovine serum (FBS), 2mM L-glutamine and 100 U/ml penicillin + 100 ug/ml streptomycin.
To detect drug effect in vitro, MTT [3-(4,5-dimethylthiazol-2-yl)-2,5-diphenyltetrazolium bromide] assay was used as described (Carmichael J et al., 1987 Cancer Res. 47, 936-42). Briefly, cells were seeded in triplicate on 96-well culture plates at a density of 20000 cells/well. The drugs were added in order to have the final concentration of 10 µM (1 µl of a solution of 10mM in DMSO) and incubated for 18-24 hr. Then MTT (0.5 mg/ml) was added to each well, and plates were incubated for an additional 1 to 3 hr in the dark at 37 °C. After this time the MTT solution was aspirated from the wells and 0.1 ml of DMSO was added. The plates were allowed to stand for 10 min, and then the absorbance was determined in a SpectraCount (Packard) microplate reader at 570 nm. The drug effect was determined by comparing absorbances of treated and untreated cells.

[2] = system: reverse passive Arthus reaction, mouse ear pinna; test: Reverse passive Arthus reaction (RPA) in the mouse ear pinna: oedema and Evans blue extravasation; assay type: in vivo; conditions: for Extravasation / Riduction % (extravasation): 10 mg/Kg i.p.; for Extravasation: Evans blue density at 620 nm in ear homogenate supernatant, Vehicle 0,90±0,06, Naïve 0,04±0,01; for Oedema (mg): 10 mg/Kg intraperitoneally 1 hour before induction, weight increase of 8 mm punch vs contralateral ear, three hours after antigen, Vehicle 49,8 ± 1,2, Naive 23,7 ± 1,2; for Riduction % (extravasation): reduction of extravasation versus Vehicle (0)
Text: The Arthus model (RPA) is a model of immune-complex mediated tissue damage that involves the passive subcutaneous introduction of an antibody and the systemic administration of the corresponding antigen. This inflammatory model has been used to test the in vivo activity of the synthesised molecules.
The reverse passive Arthus reaction is induced, in the mouse ear pinna, by the subcutaneous injection of an excess of IgG anti human albumin followed by i.v. adiministration of the corresponding Ag (i.e. human albumin) together with Evans blue, 2 mg for each mouse, for the evaluation of extravasation.
The tested molecules were solubilised in DMSO, cremophor and PBS in a ratio of 1:1:18 and administered usually by intraperitonelly at the dosage of 10 mg/Kg 1 hour before the induction of anafilactic reaction. The animals were sacrificed 3 hours after the molecule administration.
The oedema and the extravasations are evaluated tree hours after the i.v. administration of the antigen. The oedema is evaluated as the increase of weight of lesioned ear area dissected by a 8 mm biopsy punch as compared to the contralateral unlesioned auricular tissues. The extravasation is measured determining the Evans blue density at 620 nm in the supernatants deriving from ear homogenates following centrifugation at 10000 x g for 20 min.

## CCCCCC/C=C\CCCCCCCC(=O)NC(C)C [Example 3, N-Isopropyl-palmitoleyl amide]
[1]; in DMSO and in chloroform
  solubility: > 10000 µg/mL
[1]
  solubility in water: scarcely soluble
Jurkat cells
  Growth inhibition (% of control): 60.5 % of control

## CCCCCCCC/C=C\CCCCCCCC(=O)NC(C)C [Example 5, N-Isopropyl-oleyl amide]
[1]; in DMSO and in chloroform
  solubility: > 10000 µg/mL
[1]
  solubility in water: scarcely soluble
Jurkat cells
  Growth inhibition (% of control): 66.6 % of control

## CCCCCCCCCCCCCCCCCCCC(=O)NC(C)C [Example 6, N-Isopropyl-arachidyl amide]
[1]; in DMSO and in chloroform
  solubility: > 10000 µg/mL
[1]
  solubility in water: scarcely soluble
Jurkat cells
  Growth inhibition (% of control): 41.0 % of control

## CCCCCCCCCCCCCCCCCC(=O)NCCc1ccccc1 [Example 7, N-β-phenylethyl-stearoyl amide]
[1]; in DMSO and in chloroform
  solubility: > 10000 µg/mL
[1]
  solubility in water: scarcely soluble
Jurkat cells
  Growth inhibition (% of control): 47.3 % of control

## CCCCCCCCCCCCCCCC(=O)OCCC [Example 8, n-propyl-palmitate]
[1]; in DMSO and in chloroform
  solubility: > 10000 µg/mL
[1]
  solubility in water: scarcely soluble

## CCCCCCCCCCCCCCCCCC(=O)OCCC [Example 9, n-propyl-stearate]
[1]; in DMSO and in chloroform
  solubility: > 10000 µg/mL
[1]
  solubility in water: scarcely soluble

## CCCCCCCCCCCCCCCC(=O)OC(C)C [Example 10, iso-propyl-palmitate]
[1]; in DMSO and in chloroform
  solubility: > 10000 µg/mL
[1]
  solubility in water: scarcely soluble

## CCCCCCCCCCCCCCCCCC(=O)OC(C)C [Example 11, iso-propyl-stearate]
[1]; in DMSO and in chloroform
  solubility: > 10000 µg/mL
[1]
  solubility in water: scarcely soluble

## CCCCCCCCCCCCCCCCCCNC(C)=O [Example 13, N-octadecyl-acetyl-amide]
[2]; mouse ear
  Extravasation: 0,74±0,07
  Oedema (mg): 43,3 ± 0.6 mg
  Riduction % (extravasation): 17.2%
[1]; in DMSO and in chloroform
  solubility: > 10000 µg/mL
[1]
  solubility in water: scarcely soluble
Jurkat cells
  Growth inhibition (% of control): 67.2 % of control

## CCCCCCCCCCCCCCCC(=O)NC1CCCC1 [Example 14, N-cyclopentyl-palmitoyl amide]
[2]; mouse ear, 10 mg/kg
  Extravasation: 0,52±0,06
  Oedema (mg): 39,5 ± 0.8 mg
  Riduction % (extravasation): 32.3%
[1]; in DMSO and in chloroform
  solubility in organic solvents: >10 mg/ml in DMSO and in chloroform
[1]
  solubility in water: scarcely soluble
Jurkat cells
  Growth inhibition (% of control): 52.6 % of control

## CCCCCCCCCCCCCCCCCC(=O)NC1CCCCC1 [Example 16, N-cyclohexyl-stearoyl amide]
[2]; mouse ear
  Extravasation: 0,66±0,09
  Oedema (mg): 48,2 ± 1.8 mg
  Riduction % (extravasation): 26,7%
[1]; in DMSO and in chloroform
  solubility: > 10000 µg/mL
[1]
  solubility in water: scarcely soluble
Jurkat cells
  Growth inhibition (% of control): 18.2 % of control

## CCCCCCCCCCCCCCCC(=O)NCCC [Example 17, N-propyl-palmitoyl amide]
[2]; mouse ear
  Extravasation: 0,52±0,12
  Oedema (mg): 32,3 ± 2.7 mg
  Riduction % (extravasation): 32.3%
[1]; in DMSO and in chloroform
  solubility: > 10000 µg/mL
[1]
  solubility in water: scarcely soluble
Jurkat cells
  Growth inhibition (% of control): 21.4 % of control

## CCCCCCCCCCCCCCCCCC(=O)NCCC [Example 18, N- propyl-stearoyl amide]
[2]; mouse ear
  Extravasation: 0,54±0,03
  Oedema (mg): 33,3 ± 0.2 mg
  Riduction % (extravasation): 40.0%
[1]; in DMSO and in chloroform
  solubility: > 10000 µg/mL
[1]
  solubility in water: scarcely soluble
Jurkat cells
  Growth inhibition (% of control): 17.3 % of control

## CCCCCCCCCCCCCCCC(=O)NC1CC1 [Example 19, N-cyclopropyl-palmitoyl amide]
[2]; mouse ear
  Extravasation: 0,32±0,02
  Oedema (mg): 31,8 ± 3.6 mg
  Riduction % (extravasation): 64.6%
[1]; in DMSO and in chloroform
  solubility: > 10000 µg/mL
[1]
  solubility in water: scarcely soluble
Jurkat cells
  Growth inhibition (% of control): 56.2 % of control

## CCCCCCCCCCCCCCCCCC(=O)NC1CC1 [Example 20, N-cyclopropyl-stearoyl amide]
[2]; mouse ear
  Extravasation: 0,35±0,06
  Oedema (mg): 33,1 ± 0.9 mg
  Riduction % (extravasation): 61.2%
[1]; in DMSO and in chloroform
  solubility: > 10000 µg/mL
[1]
  solubility in water: scarcely soluble
Jurkat cells
  Growth inhibition (% of control): 64.2 % of control

## CCCCCCCCCCCCCCCC(=O)NCCCC [Example 23, N-butyl-palmitoyl amide]
[2]; mouse ear
  Extravasation: 0,59±0,08
  Oedema (mg): 35,2 ± 1.7 mg
  Riduction % (extravasation): 34.5%
[1]; in DMSO and in chloroform
  solubility: > 10000 µg/mL
[1]
  solubility in water: scarcely soluble
Jurkat cells
  Growth inhibition (% of control): 36.0 % of control

## CCCCCCCCCCCCCCCCCC(=O)NCCCC [Example 24, N- butyl-stearoyl amide]
[2]; mouse ear
  Extravasation: 0,55±0,07
  Oedema (mg): 33,6 ± 1.2 mg
  Riduction % (extravasation): 38.9%
[1]; in DMSO and in chloroform
  solubility: > 10000 µg/mL
[1]
  solubility in water: scarcely soluble
Jurkat cells
  Growth inhibition (% of control): 32.1 % of control

## CCCCCCCCCCCCCCCCCC(=O)NCC(C)C [Example 26, N-isobutyl-stearoyl amide]
[2]; mouse ear
  Extravasation: 0,81±0,05
  Oedema (mg): 40,3 ± 0.7 mg
  Riduction % (extravasation): 10.0%
[1]; in DMSO and in chloroform
  solubility: > 10000 µg/mL
[1]
  solubility in water: scarcely soluble

## CCCCCCCCCCCCCCCCCC(=O)NC1CCC1 [Example 28, N-cyclobutyl-stearoyl amide]
[2]; mouse ear
  Extravasation: 0,31±0,12
  Oedema (mg): 40,6 ± 2.6 mg
  Riduction % (extravasation): 65.6%
[1]; in DMSO and in chloroform
  solubility: > 10000 µg/mL
[1]
  solubility in water: scarcely soluble
Jurkat cells
  Growth inhibition (% of control): 31.6 % of control

## CCCCCCCCCCCCCCCC(=O)OCCCC [Example 29, n-butyl-palmitate]
[1]; in DMSO and in chloroform
  solubility: > 10000 µg/mL
[1]
  solubility in water: scarcely soluble

## CCCCCCCCCCCCCCCCCC(=O)OCCCC [Example 30, n-butyl-stearate]
[1]; in DMSO and in chloroform
  solubility: > 10000 µg/mL
[1]
  solubility in water: scarcely soluble

## CCCCCCCCCCCCCCCC(=O)OCC(C)C [Example 31, iso-butyl-palmitate]
[1]; in DMSO and in chloroform
  solubility: > 10000 µg/mL
[1]
  solubility in water: scarcely soluble

## CCCCCCCCCCCCCCCCCC(=O)OCC(C)C [Example 32, iso-butyl-stearate]
[1]; in DMSO and in chloroform
  solubility: > 10000 µg/mL
[1]
  solubility in water: scarcely soluble

## CCCCCCCCCCCCCCCC(=O)NCCCCC [Example 33, N-pentyl-palmitoyl amide]
[2]; mouse ear
  Extravasation: 0,72±0,06
  Oedema (mg): 43,9 ± 2.4 mg
  Riduction % (extravasation): 20.0%
[1]; in DMSO and in chloroform
  solubility: > 10000 µg/mL
[1]
  solubility in water: scarcely soluble
Jurkat cells
  Growth inhibition (% of control): 33.3 % of control

## CCCCCCCCCCCCCCCC(=O)NC1CCCC1 [Example 37, N-cyclopentyl-palmitoyl amide]
[2]; mouse ear, 10 mg/kg
  Extravasation: 0,64±0,13
  Oedema (mg): 36,2 ± 0.9 mg
  Riduction % (extravasation): 52.5%
[1]; in DMSO and in chloroform
  solubility: > 10000 µg/mL
[1]
  solubility in water: scarcely soluble
Jurkat cells
  Growth inhibition (% of control): 32.1 % of control

## CCCCCCCCCCCCCCCC(=O)OCCCCC [Example 39, n-pentyl-palmitate]
[1]; in DMSO and in chloroform
  solubility: > 10000 µg/mL
[1]
  solubility in water: scarcely soluble

## CCCCCCCCCCCCCCCCCC(=O)OCCCCC [Example 40, n-pentyl-stearate]
[1]; in DMSO and in chloroform
  solubility: > 10000 µg/mL
[1]
  solubility in water: scarcely soluble

## CCCCCCCCCCCCCCCC(=O)OC1CCCC1 [Example 41, cyclopentyl-palmitate]
[1]; in DMSO and in chloroform
  solubility: > 10000 µg/mL
[1]
  solubility in water: scarcely soluble

## CCCC(C)(C)c1ccc2c(c1)OC(C)(C)[C@@H]1CC=C(C)C[C@@H]21 [JWH 133, reference compound]
[2]; mouse ear
  reduction of oedema in vivo (in words): unable
[2]; mouse ear, i.p.
  reduction of extravasation in vivo (in words): unable
Jurkat cells
  cellular death in vitro (in words): unable
  Growth inhibition (% of control): 2.0 % of control

## CCCCCCCC/C=C\CCCCCCCC(N)=O [Oleylamide]
[2]; mouse ear
  Extravasation: 0,65±0,12
  Oedema (mg): 43,5 ± 2.6 mg
  Riduction % (extravasation): 21.8%
Jurkat cells
  Growth inhibition (% of control): 22.1 % of control

## SR144528 [reference compound]
[2]; CB2 selective antagonist
  antagonism of the anti-inflammatory effect of cannabinoid, endocannabinoid or molecules object of the invention (in words): did not antagonize
